Where a name gives a salt, the structure may show the parent alone.
Tests used:
Details in all cases: 72 h
Vero E6 [1] = assay: drug sensitivity score (DSS) for viability; higher = more toxic; extreme values may be limits of the assay
U2OS [2] = assay: as above
Calu-3 [3] = assay: as above
HepG2 [4] = assay: as above
HepG2 [5] = assay: relative viability EC50 (midpoint between 100% and the lowest measured viability); higher = less toxic
Caco-2 [6] = assay: drug sensitivity score (DSS) for viability; higher = more toxic; extreme values may be limits of the assay
Vero E6 [7] = assay: cell viability relative to DMSO; higher = less toxic
U2OS [8] = assay: as above
HepG2 [9] = assay: as above
Caco-2 [10] = assay: as above
Vero E6 [11] = assay: relative viability EC50 (midpoint between 100% and the lowest measured viability); higher = less toxic
U2OS [12] = assay: as above
Caco-2 [13] = assay: as above
Calu-3 [14] = assay: cell viability relative to DMSO; higher = less toxic

| Structure (SMILES) | drug sensitivity score (Vero E6 [1]) | drug sensitivity score (U2OS [2]) | drug sensitivity score (Calu-3 [3]) | drug sensitivity score (HepG2 [4]) | relative viability EC50 (HepG2 [5]) [µM] | drug sensitivity score (Caco-2 [6]) | cell viability (Vero E6 [7]; 1 nM) [%] | cell viability (Vero E6 [7]; 10 nM) [%] | cell viability (Vero E6 [7]; 100 nM) [%] | cell viability (Vero E6 [7]; 1000 nM) [%] | cell viability (Vero E6 [7]; 10000 nM) [%] | cell viability (U2OS [8]; 1 nM) [%] | cell viability (U2OS [8]; 10 nM) [%] | cell viability (U2OS [8]; 100 nM) [%] | cell viability (U2OS [8]; 1000 nM) [%] | cell viability (U2OS [8]; 10000 nM) [%] | cell viability (HepG2 [9]; 1 nM) [%] | cell viability (HepG2 [9]; 10 nM) [%] | cell viability (HepG2 [9]; 100 nM) [%] | cell viability (HepG2 [9]; 1000 nM) [%] | cell viability (HepG2 [9]; 10000 nM) [%] | cell viability (Caco-2 [10]; 1 nM) [%] | cell viability (Caco-2 [10]; 10 nM) [%] | cell viability (Caco-2 [10]; 100 nM) [%] | cell viability (Caco-2 [10]; 1000 nM) [%] | cell viability (Caco-2 [10]; 10000 nM) [%] | relative viability EC50 (Vero E6 [11]) [µM] | relative viability EC50 (U2OS [12]) [µM] | relative viability EC50 (Caco-2 [13]) [µM] | cell viability (Calu-3 [14]; 1 nM) [%] | cell viability (Calu-3 [14]; 10 nM) [%] | cell viability (Calu-3 [14]; 100 nM) [%] | cell viability (Calu-3 [14]; 1000 nM) [%] | cell viability (Calu-3 [14]; 10000 nM) [%] |
| --- | --- | --- | --- | --- | --- | --- | --- | --- | --- | --- | --- | --- | --- | --- | --- | --- | --- | --- | --- | --- | --- | --- | --- | --- | --- | --- | --- | --- | --- | --- | --- | --- | --- | --- |
| CCCCC1C(=O)N(c2ccccc2)N(c2ccccc2)C1=O [phenylbutazone] | 0 | 0 | 0 | 0 |  |  |  |  |  |  |  |  |  |  |  |  |  |  |  |  |  |  |  |  |  |  |  |  |  |  |  |  |  |  |
| O.O.O.O.O=C([O-])CC(O)(CC(=O)[O-])C(=O)[O-].[Li+].[Li+].[Li+] [lithium-citrate] | 0 | 0 | 0 |  |  |  |  |  |  |  |  |  |  |  |  |  |  |  |  |  |  |  |  |  |  |  |  |  |  |  |  |  |  |  |
| COc1cc(N2CCC(N3CCN(C)CC3)CC2)ccc1Nc1ncnc(Nc2ccccc2S(=O)(=O)C(C)C)n1 [ASP3026] | 4 | 1.4 |  | 6 | 1.98 | 2.5 | 92.9 | 97.9 | 100 | 90.9 | 51.7 | 100 | 94.5 | 99.6 | 98.5 | 70.9 | 107 | 96.6 | 99.7 | 88.7 | 25.2 | 102 | 101 | 95.7 | 92.7 | 68.6 |  |  |  |  |  |  |  |  |
| COc1c(O)cc2c(c1O)[C@@H]1O[C@H](CO)[C@@H](O)[C@H](O)[C@H]1OC2=O [bergenin] | 0 | 0 |  | 0 | > 10 | 4.5 | 106 | 103 | 103 | 90.5 | 101 | 96.7 | 97.8 | 95.2 | 97.7 | 97.5 | 108 | 79.5 | 98.8 | 88.8 | 96.1 | 80.5 | 106 | 80.2 | 83.1 | 80.5 | > 10 | > 10 | > 10 |  |  |  |  |  |
| CN1C(=O)N(C)C2C1N(C)C(=O)N2C (stereo not given) [mebicar] |  | 0 |  | 0 | > 10 | 0 |  |  |  |  |  | 104 | 104 | 99.8 | 106 | 102 | 110 | 107 | 114 | 97.9 | 92.2 | 101 | 106 | 98.5 | 97.9 | 95.8 |  | > 10 | > 10 |  |  |  |  |  |
| Cc1cccc(C)c1NC(=O)/N=C1\CCCN1C [xilobam] | 0 | 0 | 0 | 0 |  |  |  |  |  |  |  |  |  |  |  |  |  |  |  |  |  |  |  |  |  |  |  |  |  |  |  |  |  |  |
| CC(C)(C)c1cc(/C=C(\C#N)C(N)=S)cc(C(C)(C)C)c1O [tyrphostin-AG-879] | 2.6 | 1.8 | 2.9 | 3.6 | 3.56 | 3.8 | 97.4 | 97.5 | 94.3 | 100 | 51 | 98.9 | 98.7 | 98.7 | 98.2 | 65.7 | 93.6 | 94.7 | 104 | 106 | 27.5 | 99.3 | 94.6 | 96.9 | 93.2 | 50.5 |  |  |  | 101 | 97.1 | 99.4 | 91 | 66.8 |
| CCc1cc2c(cc1N1CCC(N3CCOCC3)CC1)C(C)(C)c1[nH]c3cc(C#N)ccc3c1C2=O [alectinib] | 0 | 0 |  | 0.9 | > 10 | 0 | 96 | 94.3 | 96.1 | 93.7 | 89 | 102 | 100 | 102 | 95.9 | 102 | 101 | 99.9 | 104 | 100 | 75.9 | 98.7 | 96.8 | 110 | 103 | 106 | > 10 | > 10 | > 10 |  |  |  |  |  |
| N[C@@H](CC(=O)Nc1ccc(Oc2cc(F)c(F)cc2Br)cc1)C(=O)O | 0 | 0 |  | 0 | > 10 | 0 | 91 | 98.3 | 95.1 | 101 | 105 | 99 | 94.4 | 101 | 94.7 | 102 | 94.2 | 92.6 | 91.7 | 111 | 104 | 94.8 | 88.1 | 98.6 | 87 | 99 | > 10 | > 10 | > 10 |  |  |  |  |  |
| O=C(NNC(=O)c1ccc(CNS(=O)(=O)c2ccc(F)c(Cl)c2)cc1)c1ccccc1 [TCN201] | 0 | 0 |  | 0 | > 10 | 0 | 104 | 98.5 | 98.4 | 102 | 102 | 96.3 | 99.8 | 97.7 | 94 | 96.4 | 89.3 | 108 | 97 | 90.7 | 97.7 | 109 | 108 | 99.1 | 99.8 | 103 | > 10 | > 10 | > 10 |  |  |  |  |  |
| COc1ccc(-c2oc3c(CC=C(C)C)c(O)cc(O)c3c(=O)c2O)cc1 [icaritin] | 0 |  |  |  |  |  | 92.9 | 98.9 | 96.7 | 93.3 | 107 |  |  |  |  |  |  |  |  |  |  |  |  |  |  |  | > 10 |  |  |  |  |  |  |  |
| COc1ccc(Cl)c(Nc2nc3ccccc3nc2NS(=O)(=O)c2cccc(NC(=O)C(C)(C)N)c2)c1 [pilaralisib] | 0.6 | 1.1 | 3.5 | 3.8 |  | 2.4 | 97 | 98.7 | 93.8 | 99.4 | 81.2 | 97.9 | 94.4 | 98.9 | 94.1 | 81.4 | 96.9 | 97.5 | 96.9 | 86.6 | 57.9 | 91.3 | 96.4 | 109 | 93.9 | 68.3 | > 10 | > 10 |  | 93.9 | 86 | 96.8 | 88 | 60.2 |
| CCN(CC)CCOC(=O)C(Cc1cccc2ccccc12)CC1CCCO1 (mixture of isomers) [naftidrofuryl] | 0.2 |  | 0 |  |  |  |  |  |  |  |  |  |  |  |  |  |  |  |  |  |  |  |  |  |  |  |  |  |  |  |  |  |  |  |
| O=C(O)C(O)C(O)C(=O)O (stereo not given) [tartaric-acid] | 0 | 0 | 0 | 0 |  |  |  |  |  |  |  |  |  |  |  |  |  |  |  |  |  |  |  |  |  |  |  |  |  |  |  |  |  |  |
| CN(C)CCOc1ccc(/C(=C(/CCCl)c2ccccc2)c2ccccc2)cc1 [Toremifene citrate] | 0 | 0.1 | 3.4 | 2.8 |  | 2.6 | 99.6 | 99.3 | 99.8 | 97.6 | 91.9 | 106 | 103 | 105 | 99 | 87.8 | 110 | 103 | 104 | 90 | 68.8 | 109 | 98.8 | 93.7 | 96.3 | 60.4 | > 10 | > 10 |  | 94.1 | 100 | 88.7 | 90.4 | 57.5 |
| CC(CNC(=O)c1cccnc1)NC(=O)c1cccnc1 (stereo not given) [nicaraven] | 0 | 0 |  | 0 | > 10 | 0 | 93.8 | 99.1 | 101 | 97.3 | 97.7 | 97 | 97.2 | 98.7 | 99.8 | 92.1 | 94.7 | 106 | 90.8 | 101 | 98.9 | 97.3 | 103 | 94.9 | 97.6 | 89.4 | > 10 | > 10 | > 10 |  |  |  |  |  |

— the supplement of paper PMC13380429
